“And” between values parts separate entries of the source, which are not always exact repeats. Identical values can stand only once.
What was measured:
[1] = target: Proto-oncogene tyrosine-protein kinase Src (Homo sapiens, UniProt P12931)
Angiopoietin-1 receptor = Angiopoietin-1 receptor (Homo sapiens, UniProt Q02763); test: In vitro inhibition of Tyrosine protein kinase receptor TIE-2 (Tek) expressed in baculovirus
[2] = target: Tyrosine-protein kinase ABL1 (Homo sapiens, UniProt P00519)
[3] = target: Platelet-derived growth factor receptor beta (Homo sapiens, UniProt P09619)
Mus musculus [4] = species: Mus musculus
[5] = target: Vascular endothelial growth factor receptor 3 (Homo sapiens, UniProt P35916); test: In vitro inhibition of Vascular endothelial growth factor receptor 3 [VEGFR-3(Flt-4)] expressed in baculovirus
[6] = target: Cyclin-dependent kinase 1 (Homo sapiens, UniProt P06493); test: In vitro inhibition of Cyclin-dependent kinase 1 (CDK-1) expressed in baculovirus
[7] = target: Macrophage colony-stimulating factor 1 receptor (Homo sapiens, UniProt P07333)
Mus musculus [8] = species: Mus musculus; remark: listed apart in the source
[9] = target: Hepatocyte growth factor receptor (Homo sapiens, UniProt P08581); test: In vitro inhibition of Met proto-oncogene tyrosine kinase (c-Met) expressed in baculovirus
[10] = target: Fibroblast growth factor receptor 1 (Homo sapiens, UniProt P11362)
Mus musculus [11] = species: Mus musculus; remark: listed apart in the source
[12] = Mean % inhibition of induced angiogenesis by Vascular endothelial growth factor (VEGF) at a peroral dose of 50 mg/kg in mice; type: functional; details: Mus musculus, route oral
B16 [13] = test: Mean % inhibition of primary tumor growth in B16 mouse administration; type: functional
Mus musculus [14] = species: Mus musculus; remark: listed apart in the source
[15] = target: Mast/stem cell growth factor receptor Kit (Homo sapiens, UniProt P10721)
[16] = target: T1, Vascular endothelial growth factor receptor 2 (Homo sapiens, UniProt P35968)
[17] = target: T1, Vascular endothelial growth factor receptor 2; remark: listed apart in the source
[18] = target: Vascular endothelial growth factor receptor 1 (Homo sapiens, UniProt P17948)
[19] = target: Insulin-like growth factor 1 receptor (Homo sapiens, UniProt P08069); test: In vitro inhibition of Insulin-like growth factor I receptor expressed in baculovirus
B16 [20] = test: Mean % inhibition of lymph node metastasis in B16 mouse administration; type: functional
[21] = Mean % inhibition of induced angiogenesis by Vascular endothelial growth factor (VEGF) after intraperitoneal dose of 100 mg/kg in mice; type: functional; details: Mus musculus, ip
[22] = target: Fibroblast growth factor receptor 1 (Mus musculus) (UniProt P16092); test: Mean % inhibition of induced angiogenesis by Heparin-binding growth factor 2 after intraperitoneal dose of 100 mg/kg in mice; type: functional, organism-based; design: dose 100 mg/kg
B16 [23] = test: Mean % inhibition of lymph node metastasis in B16 mouse administration.; type: functional

Insulin-like growth factor 1 receptor, sequence (P08069 31-736 limits assumed): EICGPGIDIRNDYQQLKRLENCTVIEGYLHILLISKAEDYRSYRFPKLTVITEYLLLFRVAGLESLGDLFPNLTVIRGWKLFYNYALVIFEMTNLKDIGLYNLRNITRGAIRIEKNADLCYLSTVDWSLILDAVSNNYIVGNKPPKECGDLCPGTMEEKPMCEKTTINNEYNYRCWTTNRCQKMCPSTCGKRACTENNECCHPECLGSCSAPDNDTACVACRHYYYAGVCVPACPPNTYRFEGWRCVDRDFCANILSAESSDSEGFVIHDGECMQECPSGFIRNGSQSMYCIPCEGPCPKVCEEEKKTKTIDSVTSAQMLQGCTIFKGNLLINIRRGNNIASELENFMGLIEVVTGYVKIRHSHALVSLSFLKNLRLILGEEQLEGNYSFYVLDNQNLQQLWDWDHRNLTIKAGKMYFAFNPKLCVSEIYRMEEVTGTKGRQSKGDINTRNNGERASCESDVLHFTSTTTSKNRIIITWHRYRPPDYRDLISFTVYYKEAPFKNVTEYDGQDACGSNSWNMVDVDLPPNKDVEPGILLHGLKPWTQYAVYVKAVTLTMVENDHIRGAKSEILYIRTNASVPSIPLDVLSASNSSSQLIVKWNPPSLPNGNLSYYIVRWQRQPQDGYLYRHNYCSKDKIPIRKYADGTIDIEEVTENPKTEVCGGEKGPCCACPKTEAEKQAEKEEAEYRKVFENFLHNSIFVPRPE
Insulin-like growth factor 1 receptor, sequence (P08069 741-1367 limits assumed): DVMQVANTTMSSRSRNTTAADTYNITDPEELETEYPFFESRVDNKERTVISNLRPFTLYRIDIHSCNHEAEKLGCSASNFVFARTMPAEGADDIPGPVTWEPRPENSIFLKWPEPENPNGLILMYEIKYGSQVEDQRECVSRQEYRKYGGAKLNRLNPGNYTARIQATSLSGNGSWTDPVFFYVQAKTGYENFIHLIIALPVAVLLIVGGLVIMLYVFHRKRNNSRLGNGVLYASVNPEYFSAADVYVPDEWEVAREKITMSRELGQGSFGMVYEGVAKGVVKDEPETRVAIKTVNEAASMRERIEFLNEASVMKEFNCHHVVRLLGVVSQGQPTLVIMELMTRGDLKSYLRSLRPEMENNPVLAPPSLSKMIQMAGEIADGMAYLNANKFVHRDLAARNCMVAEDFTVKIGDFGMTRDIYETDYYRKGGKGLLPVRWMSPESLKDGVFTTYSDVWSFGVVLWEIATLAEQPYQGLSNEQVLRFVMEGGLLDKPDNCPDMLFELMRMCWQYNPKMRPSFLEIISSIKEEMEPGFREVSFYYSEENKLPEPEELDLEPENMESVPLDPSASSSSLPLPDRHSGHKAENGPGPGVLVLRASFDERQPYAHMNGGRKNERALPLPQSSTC
Angiopoietin-1 receptor, sequence (Q02763 whole entry): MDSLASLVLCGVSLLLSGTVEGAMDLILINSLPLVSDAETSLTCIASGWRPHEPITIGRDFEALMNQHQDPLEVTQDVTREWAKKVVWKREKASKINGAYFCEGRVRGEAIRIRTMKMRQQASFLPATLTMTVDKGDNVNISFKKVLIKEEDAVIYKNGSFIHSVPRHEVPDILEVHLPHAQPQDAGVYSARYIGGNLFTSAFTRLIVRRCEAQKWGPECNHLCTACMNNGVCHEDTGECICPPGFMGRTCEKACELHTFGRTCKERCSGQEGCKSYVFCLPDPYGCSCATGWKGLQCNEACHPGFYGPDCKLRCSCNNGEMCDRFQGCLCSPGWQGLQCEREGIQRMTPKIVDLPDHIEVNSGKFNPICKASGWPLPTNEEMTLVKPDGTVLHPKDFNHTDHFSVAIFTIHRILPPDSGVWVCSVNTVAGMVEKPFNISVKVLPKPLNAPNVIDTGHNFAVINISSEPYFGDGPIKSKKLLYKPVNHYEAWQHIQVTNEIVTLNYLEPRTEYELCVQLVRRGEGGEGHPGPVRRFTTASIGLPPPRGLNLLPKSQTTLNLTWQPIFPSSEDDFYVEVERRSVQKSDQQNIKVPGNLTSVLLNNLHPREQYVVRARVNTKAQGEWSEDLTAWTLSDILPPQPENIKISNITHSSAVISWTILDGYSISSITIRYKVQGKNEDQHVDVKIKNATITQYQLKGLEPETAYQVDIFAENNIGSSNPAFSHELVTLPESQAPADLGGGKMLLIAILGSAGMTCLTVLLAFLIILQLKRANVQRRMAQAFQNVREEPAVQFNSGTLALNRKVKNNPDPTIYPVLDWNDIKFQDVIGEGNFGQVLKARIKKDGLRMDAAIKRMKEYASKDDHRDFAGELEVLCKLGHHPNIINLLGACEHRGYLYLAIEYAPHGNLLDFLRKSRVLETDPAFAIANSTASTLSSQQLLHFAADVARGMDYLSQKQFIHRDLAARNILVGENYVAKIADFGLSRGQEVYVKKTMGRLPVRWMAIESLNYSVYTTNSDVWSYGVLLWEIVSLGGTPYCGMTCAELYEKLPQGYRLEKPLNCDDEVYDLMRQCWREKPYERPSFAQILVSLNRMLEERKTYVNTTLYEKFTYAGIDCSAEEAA
Cyclin-dependent kinase 1, sequence (P06493 whole entry): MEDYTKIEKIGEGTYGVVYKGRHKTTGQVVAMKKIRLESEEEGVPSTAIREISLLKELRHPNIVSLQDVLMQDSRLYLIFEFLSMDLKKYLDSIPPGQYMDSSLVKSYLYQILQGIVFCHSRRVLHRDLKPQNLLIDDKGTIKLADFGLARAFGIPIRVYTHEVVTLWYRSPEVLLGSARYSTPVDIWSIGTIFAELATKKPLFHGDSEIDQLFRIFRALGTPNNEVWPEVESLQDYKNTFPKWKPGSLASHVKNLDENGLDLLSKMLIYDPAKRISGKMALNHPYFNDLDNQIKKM
Hepatocyte growth factor receptor, sequence (P08581 whole entry, looked up): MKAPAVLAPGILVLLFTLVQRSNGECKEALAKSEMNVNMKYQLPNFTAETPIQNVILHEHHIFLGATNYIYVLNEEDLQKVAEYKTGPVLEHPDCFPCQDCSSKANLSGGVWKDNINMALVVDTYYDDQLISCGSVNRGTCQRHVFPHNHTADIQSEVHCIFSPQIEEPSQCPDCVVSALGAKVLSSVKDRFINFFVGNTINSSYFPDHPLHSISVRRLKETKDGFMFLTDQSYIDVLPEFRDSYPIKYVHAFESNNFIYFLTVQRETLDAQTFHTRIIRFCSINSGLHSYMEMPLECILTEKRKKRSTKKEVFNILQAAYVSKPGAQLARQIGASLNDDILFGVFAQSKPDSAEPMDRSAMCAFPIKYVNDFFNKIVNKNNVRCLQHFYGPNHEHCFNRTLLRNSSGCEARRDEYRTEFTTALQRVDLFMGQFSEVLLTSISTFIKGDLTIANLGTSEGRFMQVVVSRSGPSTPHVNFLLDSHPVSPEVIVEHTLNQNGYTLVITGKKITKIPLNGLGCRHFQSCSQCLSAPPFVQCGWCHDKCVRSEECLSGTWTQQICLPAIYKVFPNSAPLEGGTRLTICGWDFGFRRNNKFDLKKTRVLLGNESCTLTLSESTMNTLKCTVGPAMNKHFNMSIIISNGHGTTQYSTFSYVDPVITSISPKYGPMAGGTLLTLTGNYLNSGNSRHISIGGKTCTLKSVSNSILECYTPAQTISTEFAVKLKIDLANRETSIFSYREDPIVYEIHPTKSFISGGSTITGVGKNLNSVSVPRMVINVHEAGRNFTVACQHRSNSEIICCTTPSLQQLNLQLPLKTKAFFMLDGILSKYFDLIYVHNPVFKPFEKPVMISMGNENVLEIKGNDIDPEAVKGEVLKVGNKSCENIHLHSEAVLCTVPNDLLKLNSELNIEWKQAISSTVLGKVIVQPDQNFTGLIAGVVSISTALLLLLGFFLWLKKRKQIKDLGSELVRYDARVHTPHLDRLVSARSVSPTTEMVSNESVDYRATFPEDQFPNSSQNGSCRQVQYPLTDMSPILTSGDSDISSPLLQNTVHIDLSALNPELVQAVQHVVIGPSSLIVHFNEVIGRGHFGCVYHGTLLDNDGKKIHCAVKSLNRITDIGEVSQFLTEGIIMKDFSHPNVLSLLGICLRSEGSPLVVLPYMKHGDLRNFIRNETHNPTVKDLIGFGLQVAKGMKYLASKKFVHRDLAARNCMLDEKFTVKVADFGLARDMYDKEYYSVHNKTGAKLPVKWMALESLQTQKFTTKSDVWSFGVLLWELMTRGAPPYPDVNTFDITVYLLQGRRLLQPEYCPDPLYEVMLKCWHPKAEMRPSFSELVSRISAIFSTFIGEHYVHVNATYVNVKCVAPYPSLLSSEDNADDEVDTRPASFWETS
Proto-oncogene tyrosine-protein kinase Src, sequence (P12931 2-536 limits assumed): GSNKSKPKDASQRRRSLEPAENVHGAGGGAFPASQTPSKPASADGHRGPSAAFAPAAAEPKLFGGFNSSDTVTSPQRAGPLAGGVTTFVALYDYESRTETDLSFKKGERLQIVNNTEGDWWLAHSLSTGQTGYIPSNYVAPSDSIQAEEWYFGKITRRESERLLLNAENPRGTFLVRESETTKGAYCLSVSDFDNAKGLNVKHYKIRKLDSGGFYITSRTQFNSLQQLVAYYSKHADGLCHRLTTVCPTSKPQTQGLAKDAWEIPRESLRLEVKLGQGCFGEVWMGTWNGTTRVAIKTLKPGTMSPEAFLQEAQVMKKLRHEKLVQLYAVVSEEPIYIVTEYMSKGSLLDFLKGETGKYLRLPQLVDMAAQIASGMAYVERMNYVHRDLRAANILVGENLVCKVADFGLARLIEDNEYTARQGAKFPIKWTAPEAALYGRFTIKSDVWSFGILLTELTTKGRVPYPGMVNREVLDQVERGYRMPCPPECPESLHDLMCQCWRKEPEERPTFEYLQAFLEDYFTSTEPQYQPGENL

Structure (SMILES) | IC50 [1] | IC50 (Angiopoietin-1 receptor) | IC50 [2] | IC50 [5] | IC50 [6] | IC50 [7] | IC50 [9] | IC50 [10] | inhibition in vivo at 50 mg/kg [12] | Inhibition (B16 [13]) | IC50 [15] | IC50 [19] | Inhibition (B16 [20]) | other results
O=C(Nc1cccc(-c2cncc3ccccc23)c1)c1ccccc1NCc1ccncc1 | > 10000 nM | 6800 nM | 5330 nM | 52 nM | > 10000 nM | 99 nM | > 10000 nM | 5100 nM | 100% | 39% and 73% | 105 nM | 6400 nM |  | IC50 [3]: 357 nM; Plasma concentration (Mus musculus [4]): 1.6 µM l-1; Plasma concentration (Mus musculus [8]): 3.4 µM l-1; Plasma concentration (Mus musculus [11]): 1.9 µM l-1; Plasma concentration (Mus musculus [14]): 1.9 µM l-1; IC50 [16]: 9 nM; IC50 [17]: 1.16 nM; IC50 [18]: 130 nM
Clc1ccc(Nc2nnc(Cc3ccncc3)c3ccccc23)cc1.O=C(O)CCC(=O)O |  |  |  |  |  |  |  |  | 68% | 34% |  |  | 55% | 
O=C(Nc1cccc(C(F)(F)F)c1)c1ccccc1NCc1ccncc1 | > 10000 nM | > 10000 nM | 2820 nM |  | > 10000 nM | 380 nM | > 10000 nM | > 10000 nM | 84% | 44% | 236 nM | > 10000 nM | 85% | 
Cc1cc(C)c(/C=C2\C(=O)Nc3ccccc32)[nH]1 [SEMAXANIB] |  | > 10000 nM |  | 50 nM | > 10000 nM |  |  |  |  |  |  | > 10000 nM |  | inhibition in vivo at 100 mg/kg [21]: 65%; inhibition [22]: 87%
COc1cc2/c(=N/c3ccc(Br)cc3F)nc[nH]c2cc1OCC1CCN(C)CC1 [VANDETANIB] |  |  |  |  |  |  |  |  | 71% | 60% |  |  |  | Inhibition (B16 [23]): 61%
